Assays:
Parameters in all cases: purchased Milipore (Millipore)
[1] = target: T1, Human adrenergic α2B receptor (Homo sapiens, UniProt P18089); assay: Radioligand binding, adrenergic α2B (Protocol Group B); conditions: Protocol Group B; for inhibition at 0.01 µM / Percentage inhibition of ligand binding, Adrenergic α2B (10 nM): 10 nM compound; for inhibition at 0.01 µM: read-out: Percentage inhibition of ligand binding, Adrenergic α2B (10 nM); for inhibition at 0.03 µM / Percentage inhibition of ligand binding, Adrenergic α2B (30 nM): 30 nM compound; for inhibition at 0.03 µM: read-out: Percentage inhibition of ligand binding, Adrenergic α2B (30 nM); for inhibition at 0.1 µM / Percentage inhibition of ligand binding, Adrenergic α2B (0.1 μM): 0.1 μM compound; for inhibition at 0.1 µM: read-out: Percentage inhibition of ligand binding, Adrenergic α2B (0.1 μM); for Percentage inhibition of ligand binding, Adrenergic α2B (10 nM): 0.01 µM; for Percentage inhibition of ligand binding, Adrenergic α2B (30 nM): 0.03 µM
T1 sequence (P18089 1-450): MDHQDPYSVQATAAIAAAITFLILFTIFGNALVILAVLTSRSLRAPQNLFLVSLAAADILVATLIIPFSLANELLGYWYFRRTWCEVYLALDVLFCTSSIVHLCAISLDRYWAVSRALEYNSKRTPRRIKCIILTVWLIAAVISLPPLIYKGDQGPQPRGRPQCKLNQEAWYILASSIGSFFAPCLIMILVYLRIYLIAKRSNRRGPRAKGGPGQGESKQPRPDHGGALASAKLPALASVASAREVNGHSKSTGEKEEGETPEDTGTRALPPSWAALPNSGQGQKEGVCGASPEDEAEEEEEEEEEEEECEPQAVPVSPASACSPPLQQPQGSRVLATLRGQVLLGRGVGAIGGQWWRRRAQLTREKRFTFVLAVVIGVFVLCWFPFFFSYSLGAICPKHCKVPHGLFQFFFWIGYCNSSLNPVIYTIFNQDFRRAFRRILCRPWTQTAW
Procedure, shortened: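 Compounds at various concentrations in 1% DMSO were tested on recombinant membranes in Tris-HCl pH 7.4 buffer containing MgCl2, CaCl2 and 0.2% BSA.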

[2] = target: T2, Human adrenergic α2A receptor (Homo sapiens, UniProt P08913); assay: Radioligand binding, adrenergic α2A (Protocol Group B); conditions: Protocol Group B; for inhibition at 0.3 µM / Percentage inhibition of ligand binding, Adrenergic α2A (0.3 μM): 0.3 μM compound; for inhibition at 0.3 µM: read-out: Percentage inhibition of ligand binding, Adrenergic α2A (0.3 μM)
T2 sequence (P08913 1-465): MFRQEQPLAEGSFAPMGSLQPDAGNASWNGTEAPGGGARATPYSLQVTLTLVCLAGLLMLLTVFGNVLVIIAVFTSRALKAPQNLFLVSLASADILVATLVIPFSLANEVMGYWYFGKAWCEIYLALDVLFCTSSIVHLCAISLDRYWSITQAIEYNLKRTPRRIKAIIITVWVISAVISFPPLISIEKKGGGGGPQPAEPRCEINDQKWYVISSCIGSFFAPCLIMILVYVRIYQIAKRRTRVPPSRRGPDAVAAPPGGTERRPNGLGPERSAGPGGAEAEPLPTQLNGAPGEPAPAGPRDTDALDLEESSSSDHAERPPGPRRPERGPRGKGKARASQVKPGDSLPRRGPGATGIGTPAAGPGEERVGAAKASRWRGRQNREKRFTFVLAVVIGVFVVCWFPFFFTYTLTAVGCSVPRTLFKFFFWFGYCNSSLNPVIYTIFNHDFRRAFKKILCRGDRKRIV
Procedure, shortened: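 Compounds (1% DMSO vehicle, various concentrations) competed against 2 nM [^3H]MK-912 on recombinant receptor membranes for 60 min at 25° C, Tris-HCl pH 7.4 buffer with Mg2+, Ca2+, BSA. Bound radioligand filtered and counted; 10 μM rauwolscine set nonspecific binding. Values: percent inhibition of specific binding or estimated Ki.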

[3] = target: T3, Human adrenergic α1B receptor (Homo sapiens, UniProt P35368); assay: Radioligand binding, adrenergic α1B (Protocol Group B); conditions: Protocol Group B; for inhibition at 0.3 µM / Percentage inhibition of ligand binding, Adrenergic α1B (0.3 μM): 0.3 μM compound; for inhibition at 0.3 µM: read-out: Percentage inhibition of ligand binding, Adrenergic α1B (0.3 μM)
T3 sequence (P35368 1-520): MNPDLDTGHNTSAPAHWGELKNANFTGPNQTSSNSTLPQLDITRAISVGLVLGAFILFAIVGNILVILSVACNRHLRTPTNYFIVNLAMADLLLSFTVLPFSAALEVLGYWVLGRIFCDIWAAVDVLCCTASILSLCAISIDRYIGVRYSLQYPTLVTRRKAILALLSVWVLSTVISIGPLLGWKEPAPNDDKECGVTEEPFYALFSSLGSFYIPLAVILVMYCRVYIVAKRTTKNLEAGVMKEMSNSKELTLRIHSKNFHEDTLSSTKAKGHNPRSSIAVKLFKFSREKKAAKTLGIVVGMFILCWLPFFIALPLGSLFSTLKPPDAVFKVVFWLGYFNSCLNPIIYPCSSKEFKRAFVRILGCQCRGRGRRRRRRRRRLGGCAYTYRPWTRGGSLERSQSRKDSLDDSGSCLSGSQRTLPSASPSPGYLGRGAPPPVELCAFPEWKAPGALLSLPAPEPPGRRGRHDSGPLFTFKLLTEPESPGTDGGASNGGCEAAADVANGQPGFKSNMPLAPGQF
Procedure, shortened: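 Values are percent inhibition of specific [3H]prazosin (0.3 nM) binding or estimated Ki, from filtration counting. Human α1B recombinant membranes, Tris-HCl pH 7.4 buffer with MgCl2 and EDTA, 60 min at 25 °C, 1% DMSO vehicle; 10 μM prazosin defined nonspecific binding.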

Row | Compound | inhibition at 0.01 µM [1] [%] | inhibition at 0.03 µM [1] [%] | inhibition at 0.1 µM [1] [%] | inhibition at 0.1 µM ([2]; 0.1 μM compound, read-out: Percentage inhibition of ligand binding, Adrenergic α2A (0.1 μM)) [%] | inhibition at 0.3 µM [2] [%] | inhibition at 0.1 µM ([3]; 0.1 μM compound, read-out: Percentage inhibition of ligand binding, Adrenergic α1B (0.1 μM)) [%] | inhibition at 0.3 µM [3] [%] | Percentage inhibition of ligand binding, Adrenergic α2B (10 nM) [1] [%] | Percentage inhibition of ligand binding, Adrenergic α2B (30 nM) [1] [%] | Percentage inhibition of ligand binding, Adrenergic α2B (0.1 μM) [1] [%] | Percentage inhibition of ligand binding, Adrenergic α2A (0.1 μM) ([2]; 0.1 μM compound) [%] | Percentage inhibition of ligand binding, Adrenergic α2A (0.3 μM) [2] [%] | Percentage inhibition of ligand binding, Adrenergic α1B (0.1 μM) ([3]; 0.1 μM compound) [%] | Percentage inhibition of ligand binding, Adrenergic α1B (0.3 μM) [3] [%] | Ki ([1]; estimated Ki, read-out: Ki α2B) [nM]
1 | Cc1cc2c3c(n(CC(O)c4ccncc4)c2cc1Cl)CCN1CCCC31 (stereo not drawn) [compound 21, 2-(8-chloro-9-methyl-1,2,3,4,5,10c-hexahydro-3a, 6-diaza-cyclopenta[c]fluoren-6-yl)-1-pyridin-4-yl-ethanol] | 85 | 96 | 96 | 78 | 89 | 84 | 95 | – | – | – | – | – | – | – | –
2 | Cc1ccc2c(c1)c1c(n2CC(C)(O)c2ccc(N(C)C)nc2)CCN(C)C1 (single isomer, unassigned) [39a] | – | – | – | – | – | – | – | 15 | 38 | 62 | 12 | 26 | 15 | 36 | –
3 | Cc1ccc2c(c1)c1c(n2CC(C)(O)c2ccc(F)cc2)CC2CCC1N2C (single isomer, unassigned) [102a] | – | – | – | – | – | – | – | 2 | 13 | 38 | −8 | 5 | 5 | 22 | –
4 | OC(Cn1c2c(c3cc(F)cc(F)c31)C1CCCN1CC2)c1ccncc1 (single isomer, unassigned) [144d] | – | – | – | – | – | – | – | – | 1 | – | 1 | – | 1 | – | –
5 | Cc1ccc2c(c1)c1c(n2CC(C)(O)c2ccc(F)cc2)CN2CCC1C2 (single isomer, unassigned) [134b] | – | – | – | – | – | – | – | – | 40 | – | 7 | – | 29 | – | –
6 | CC(O)(Cn1c2c(c3cc(Cl)cc(F)c31)C1CCCN1CC2)c1cccnc1 (single isomer, unassigned) [53a] | 87 | 97 | 98 | – | 74 | – | 50 | – | – | – | 60 | – | 12 | – | 1.7
7 | Cc1cc(Br)c2c(c1)c1c(n2CC(O)c2ccncc2)CCN2CCCC12 (single isomer, unassigned) [145b] | – | – | – | – | – | – | – | – | 100 | – | 89 | – | 68 | – | –
8 | Cc1cc2c3c(n(CC(C)(O)c4ccncc4)c2cc1Cl)CCN1CCCC31 (single isomer, unassigned) [50d] | – | – | – | – | – | – | – | −8 | −2 | 13 | −9 | −4 | −8 | 4 | –
9 | Cc1cc(C)c2c(c1)c1c(n2CC(C)(O)c2cccnc2)CCN2CCCC12 (single isomer, unassigned) [44c] | – | – | – | – | – | – | – | −9 | 0 | – | 1 | 4 | 7 | 4 | –
10 | Cc1ccc2c(c1)c1c(n2CC(C)(O)c2cccnc2)CC2CCC1N2C (single isomer, unassigned) [101c] | – | – | – | – | – | – | – | 7 | 5 | 16 | 6 | 7 | 12 | 7 | –
11 | Cc1cc(F)c2c(c1)c1c(n2CC(C)(O)c2ccncc2)CC2CCCN2C1 (single isomer, unassigned) [62d] | – | – | – | – | – | – | – | 21 | 57 | 82 | 11 | 25 | 12 | 27 | –
12 | CC(O)(Cn1c2c(c3cc(F)ccc31)C1CCCN1CC2)c1cccnc1 (stereo not drawn) [51a] | – | – | – | – | – | – | – | 79 | 93 | 97 | 16 | 39 | −6 | 19 | –
13 | Cc1ccc2c(c1)c1c(n2CC(C)(O)c2cncc(F)c2)CCN(C)C1 (single isomer, unassigned) [46b] | – | – | – | – | – | – | – | 0 | 15 | 37 | −1 | 3 | 0 | 10 | –
14 | Cc1ccc2c(c1)c1c(n2CC(C)(O)c2ccncc2)CCN2CCCC12 (single isomer, unassigned) [13d] | – | – | – | – | – | – | – | 7 | 27 | 76 | 3 | 20 | −7 | 9 | –
15 | CC(O)(Cn1c2c(c3cc(F)ccc31)C1CCCN1CC2)c1ccncc1 (single isomer, unassigned) [31c] | 3 | – | – | – | – | – | – | – | −2 | 45 | 0 | −21 | 1 | −4 | –

From patent US20150315188A1, “COMPOUNDS AND METHODS FOR TREATMENT OF HYPERTENSION” (MEDIVATION TECHNOLOGIES, INC., priority 2012, published 2015)
